Results on 20 molecules are retold here after ChEMBL document CHEMBL1131026, “D-amino acid containing, high-affinity inhibitors of recombinant human calpain I” (J Med Chem, 1998).

Experiment [1] addresses T1, Calpain-1 catalytic subunit (Homo sapiens, UniProt P07384).
T1 sequence (P07384 whole entry): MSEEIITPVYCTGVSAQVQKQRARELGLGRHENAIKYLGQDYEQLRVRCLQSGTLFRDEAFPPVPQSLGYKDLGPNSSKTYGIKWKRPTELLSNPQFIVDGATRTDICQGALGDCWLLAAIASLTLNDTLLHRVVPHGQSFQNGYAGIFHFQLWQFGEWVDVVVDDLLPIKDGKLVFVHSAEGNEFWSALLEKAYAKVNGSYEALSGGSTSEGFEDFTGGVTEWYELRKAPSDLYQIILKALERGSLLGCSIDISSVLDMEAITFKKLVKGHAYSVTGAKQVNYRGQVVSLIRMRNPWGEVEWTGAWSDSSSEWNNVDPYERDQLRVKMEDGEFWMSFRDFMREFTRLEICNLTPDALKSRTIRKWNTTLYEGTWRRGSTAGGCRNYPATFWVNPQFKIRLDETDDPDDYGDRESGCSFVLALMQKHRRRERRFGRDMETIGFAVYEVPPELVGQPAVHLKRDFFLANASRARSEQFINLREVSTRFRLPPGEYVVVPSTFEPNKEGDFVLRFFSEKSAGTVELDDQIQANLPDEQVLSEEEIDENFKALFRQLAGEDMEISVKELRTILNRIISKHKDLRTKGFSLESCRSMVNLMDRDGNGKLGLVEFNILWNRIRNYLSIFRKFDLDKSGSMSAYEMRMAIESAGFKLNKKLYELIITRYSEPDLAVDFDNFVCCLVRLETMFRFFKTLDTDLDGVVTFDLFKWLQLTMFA
The experiment is described as follows: Inhibitory activity against recombinant human Calpain-I receptor.

Experiment [2] has as its target Chymotrypsinogen A (Bos taurus) (UniProt P00766). In words: Inhibitory activity against Bovine pancreas alpha-chymotrypsin at 10 uM.
In experiment [3] the target is Prothrombin (Homo sapiens) (UniProt P00734). The experiment is described as follows: Inhibitory activity against human plasma thrombin at 10 uM. The format is cell-free.
For experiment [4], the target named is T1, Calpain-1 catalytic subunit. In words: Inhibition of intracellular Calpain-I receptor using intact cell assay system. The experiment is classed as cell-based.
Experiment [5] has as its target Cathepsin B (Homo sapiens, UniProt P07858). In words: Inhibitory activity against cathepsin B receptor in human liver.

Structures are written as SMILES. pIC50, pKi: −log10 of the molar value. Square brackets hold non-standard residues; d marks the D form. Peptide text beside a SMILES is read from it. * marks the point of attachment. d(hPhe) = N[C@H](CCc1ccccc1)C(=O)O; d2Thi = N[C@H](Cc1cccs1)C(=O)O; dPhg = N[C@@H](C(=O)O)c1ccccc1; Abu = CC[C@H](N)C(=O)O; Bn = c1ccc(C*)cc1; Ms = CS(=O)(=O)*

Regarding `O=C[C@H](Cc1ccccc1)NC(=O)[C@@H](COCc1ccccc1)NS(=O)(=O)c1ccccc1`, in experiment [1], the pKi (as a rule, the negative decadic logarithm of the Ki, by convention in mol/L) was 7.66.
As for `CS(=O)(=O)N[C@H](COCc1ccccc1)C(=O)N[C@H](C=O)Cc1ccccc1`, the inhibition (in general, the drop in the measured response relative to a control, in per cent) is 23% in experiment [2] and 0% in experiment [3]. In addition, the negative-log Ki (pKi) in experiment [1] was 8.10; in experiment [5], 7.49. Moreover, in experiment [4], the negative-log IC50 (pIC50) (commonly −log10 of the IC50, conventionally taken in molar units) is 6.15.
For `CCNC(=O)C(=O)[C@H](Cc1ccccc1)NC(=O)[C@@H](COCc1ccccc1)NS(C)(=O)=O`, the pKi in experiment [1] is 6.89.
In the case of `CN([C@H](COCc1ccccc1)C(=O)N[C@H](C=O)Cc1ccccc1)S(C)(=O)=O`, the negative-log Ki (pKi) in experiment [1] was 6.43.
Regarding `CCS(=O)(=O)N[C@H](COCc1ccccc1)C(=O)N[C@H](C=O)Cc1ccccc1`, the inhibition was 15% in experiment [2] and 9% in experiment [3]. For the same molecule, the negative-log Ki (pKi) was 8.05 in experiment [1] and 7.35 in experiment [5]. The molecule further gave a negative-log IC50 (pIC50) in experiment [4] of 6.40.
For `CS(=O)(=O)N[C@H](COCc1ccccc1)C(=O)N[C@H](C=O)CCCCNS(=O)(=O)c1ccccc1`, the inhibition in experiment [2] worked out at 13%; in experiment [3], 0%. For the same molecule, the pKi is 8.70 in experiment [1] and 8.40 in experiment [5]. The negative logarithm of the IC50 (pIC50) in experiment [4] is 6.40.
For the molecule `CC(OCc1ccccc1)[C@@H](NS(C)(=O)=O)C(=O)N[C@H](C=O)Cc1ccccc1` (some centres not stated), the inhibition in experiment [2] turned out to be 3%; in experiment [3], 0%. In addition, the pKi in experiment [1] is 8.05; in experiment [5], 7.36. In experiment [4], this molecule showed a negative-log IC50 (pIC50) of 6.30.
Consider `O=C[C@H](Cc1ccccc1)NC(=O)[C@@H](COCc1ccccc1)NS(=O)(=O)c1cccs1`, for which the negative-log Ki (pKi) in experiment [1] is 8.05.
Turning to `CS(=O)(=O)N[C@H](CS(=O)(=O)Cc1ccccc1)C(=O)N[C@H](C=O)Cc1ccccc1`, the pKi in experiment [1] is 7.96.
For `CS(=O)(=O)N[C@H](Cc1cccs1)C(=O)N[C@H](C=O)Cc1ccccc1` (Ms-[d2Thi]-Phe-aldehyde), the inhibition in experiment [2] and in experiment [3] was 0% each time. In addition, the pKi was 7.96 in experiment [1] and 7.64 in experiment [5]. Also, the negative-log IC50 (pIC50) in experiment [4] was 6.52.
Take `CS(=O)(=O)N[C@H](CCc1ccccc1)C(=O)N[C@H](C=O)Cc1ccccc1` (Ms-[d(hPhe)]-Phe-aldehyde): the negative logarithm of the Ki (pKi) in experiment [1] is 7.55.
Turning to `CS(=O)(=O)N[C@H](CSCc1ccccc1)C(=O)N[C@H](C=O)Cc1ccccc1` (Ms-[dC](Bn)-Phe-aldehyde), the figures for the inhibition in experiment [2] and in experiment [3] were 16% and 7%, respectively. Moreover, the pKi in experiment [1] was 8.22; in experiment [5], 7.39. Further, in experiment [4], the negative-log IC50 (pIC50) is 6.10.
Consider `CS(=O)(=O)N[C@H](Cc1ccccc1)C(=O)N[C@H](C=O)Cc1ccccc1` (Ms-[dF]-Phe-aldehyde), for which the inhibition turned out to be 12% in experiment [2] and 0% in experiment [3]. The figures for the negative-log Ki (pKi) in experiment [1] and in experiment [5] were 7.96 and 6.92, respectively. In experiment [4], this molecule gave a pIC50 of 6.22.
On to `CC(C)C[C@@H](NS(C)(=O)=O)C(=O)N[C@H](C=O)Cc1ccccc1` (Ms-[dL]-Phe-aldehyde), for which the pKi in experiment [1] is 7.54.
As to `CS(=O)(=O)N[C@@H](C(=O)N[C@H](C=O)Cc1ccccc1)c1ccccc1` (Ms-[dPhg]-Phe-aldehyde), the negative-log Ki (pKi) in experiment [1] is 8.05.
Same read-out and setting: the same measure for `CC(C)C[C@@H](C=O)NC(=O)[C@@H](COCc1ccccc1)NS(C)(=O)=O` (Ms-[dS](Bn)-Leu-aldehyde): 7.18.
Regarding `CS(=O)(=O)N[C@H](COCc1ccccc1)C(=O)N[C@H](C=O)Cc1ccc(OCc2ccccc2)cc1` (Ms-[dS](Bn)-Tyr(Bn)-aldehyde), the inhibition in experiment [2] and in experiment [3] was 0% in each case. For the same molecule, the negative logarithm of the Ki (pKi) in experiment [1] is 8.40; in experiment [5], 7.35. The molecule further showed a negative-log IC50 (pIC50) in experiment [4] of 6.15.
Turning to `CC[C@@H](C=O)NC(=O)[C@@H](COCc1ccccc1)NS(C)(=O)=O` (Ms-[dS](Bn)-[Abu]-aldehyde), the negative-log Ki (pKi) in experiment [1] was 7.44.
In the case of `CS(=O)(=O)N[C@H](Cc1c[nH]c2ccccc12)C(=O)N[C@H](C=O)Cc1ccccc1` (Ms-[dW]-Phe-aldehyde), the negative-log Ki (pKi) in experiment [1] was 8.00.
For `CS(=O)(=O)NC(COCc1ccccc1)C(=O)N[C@H](C=O)Cc1ccccc1` (single isomer, unassigned), the pKi in experiment [1] was 7.39.
